# Experimental data reported in patent US20030068808A1, “Methods for generating antibiotic resistant microbes and novel antibiotics” (priority 2001, published 2003).
# Assays:
# Type in all cases: cell-based
# BL21 cells = test: Half minimum inhibitory concentrations (MIC) on BL21 cells, titration analysis; conditions: half minimum inhibitory concentration on BL21 cells
# [1] = test system: bacterial cells expressing the vector (pT7Ea); test: Overnight growth in antibiotic, vector control bacteria; conditions: overnight at 37° C., 10^7 cells in 5 ml LB broth plus antibiotic at 0.5X MIC
# Method: (§1) Titration analysis found the following amounts to be effective in inhibiting bacterial growth in the presence of various compounds.
# (§2) The next day, cultures were analyzed for cell growth in the presence or absence of antibiotics.
# [2] = test system: bacterial cells expressing pT7PMS134/V5; test: Overnight growth in antibiotic, MMR defective bacteria expressing PMS2-134; conditions: overnight at 37° C., 10^7 cells in 5 ml LB broth plus antibiotic at 0.5X MIC
# Method: as §1, §2
Compound,0.5X MIC (BL21 cells) [µg/mL],Cell # (pT7Ea) [1],Cell # (X10^9) (pT7PMS134V5) [2]
CN[C@H](CC(C)C)C(=O)N[C@H]1C(=O)N[C@@H](CC(N)=O)C(=O)N[C@H]2C(=O)N[C@H]3C(=O)N[C@H](C(=O)N[C@H](C(=O)O)c4cc(O)cc(O)c4-c4cc3ccc4O)[C@H](O)c3ccc(c(Cl)c3)Oc3cc2cc(c3O[C@@H]2O[C@H](CO)[C@@H](O)[C@H](O)[C@H]2O[C@H]2C[C@](C)(N)[C@H](O)[C@H](C)O2)Oc2ccc(cc2Cl)[C@H]1O [Vancomycin],250.0,0,
CN(C)[C@@H]1C(O)=C(C(N)=O)C(=O)[C@@]2(O)C(O)=C3C(=O)c4c(O)cccc4[C@@](C)(O)[C@H]3C[C@@H]12 [Tetracycline],,0,1.10 X10^9
CCn1cc(C(=O)O)c(=O)c2ccc(C)nc21 [Nalidixic Acid],7.10,0,0.97 X10^9
CCn1cc(C(=O)O)c(=O)c2cc(F)c(N3CCNCC3)cc21 [Norfloxacin],0.13,0,1.40 X10^9
CC1COc2c(N3CCN(C)CC3)c(F)cc3c(=O)c(C(=O)O)cn1c23 (stereo not shown) [Ofloxacin],0.13,0,1.20 X10^9
